Results taken from PMC4566129, “Factors Governing P-Glycoprotein-Mediated Drug–Drug Interactions at the Blood–Brain Barrier Measured with Positron Emission Tomography” (Molecular Pharmaceutics, 2015).
Like-named read-outs stand apart in the source and are kept apart here. Marks after values point to notes of the source that are not given here.

Legend:
[1] = tested on: LLC wild-type cells; settings: LLC wild-type cells (data not shown)
Description: (§1) Tariquidar or solvent was added to both compartments. […] To determine membrane integrity, transepithelial electrical resistance (TEER) and, in representative wells, [^14C]mannitol diffusion were measured with criteria for exclusion described earlier.[27]
(§2) Apparent substrate permeability (Papp) from the basolateral to the apical compartment (b–A) and vice versa (a–B) was calculated using the following equation: [drawing 1] where dQ/dt (disintegration/min) is the permeability rate of the substrate into the sample compartment, A the growth area of the monolayer, and C0 the initial substrate concentration in the donor compartment. The transport ratio (TR) was calculated by dividing Papp(b–A) by Papp(a–B). […] With Prism6 software (GraphPad Software, La Jolla, CA, USA) a sigmoidal model with variable slope was used to analyze concentration–response relationships by nonlinear regression.

[2] = biological target: T1, Abcb1a (Mus musculus, UniProt P21447); experiment: Bidirectional transport assay in Abcb1a-transfected LLC cells (LLC-Abcb1a) without/with tariquidar; settings: for IC50: normalized TR over 6 h, estimated by sigmoidal fit
T1 sequence (P21447 whole entry): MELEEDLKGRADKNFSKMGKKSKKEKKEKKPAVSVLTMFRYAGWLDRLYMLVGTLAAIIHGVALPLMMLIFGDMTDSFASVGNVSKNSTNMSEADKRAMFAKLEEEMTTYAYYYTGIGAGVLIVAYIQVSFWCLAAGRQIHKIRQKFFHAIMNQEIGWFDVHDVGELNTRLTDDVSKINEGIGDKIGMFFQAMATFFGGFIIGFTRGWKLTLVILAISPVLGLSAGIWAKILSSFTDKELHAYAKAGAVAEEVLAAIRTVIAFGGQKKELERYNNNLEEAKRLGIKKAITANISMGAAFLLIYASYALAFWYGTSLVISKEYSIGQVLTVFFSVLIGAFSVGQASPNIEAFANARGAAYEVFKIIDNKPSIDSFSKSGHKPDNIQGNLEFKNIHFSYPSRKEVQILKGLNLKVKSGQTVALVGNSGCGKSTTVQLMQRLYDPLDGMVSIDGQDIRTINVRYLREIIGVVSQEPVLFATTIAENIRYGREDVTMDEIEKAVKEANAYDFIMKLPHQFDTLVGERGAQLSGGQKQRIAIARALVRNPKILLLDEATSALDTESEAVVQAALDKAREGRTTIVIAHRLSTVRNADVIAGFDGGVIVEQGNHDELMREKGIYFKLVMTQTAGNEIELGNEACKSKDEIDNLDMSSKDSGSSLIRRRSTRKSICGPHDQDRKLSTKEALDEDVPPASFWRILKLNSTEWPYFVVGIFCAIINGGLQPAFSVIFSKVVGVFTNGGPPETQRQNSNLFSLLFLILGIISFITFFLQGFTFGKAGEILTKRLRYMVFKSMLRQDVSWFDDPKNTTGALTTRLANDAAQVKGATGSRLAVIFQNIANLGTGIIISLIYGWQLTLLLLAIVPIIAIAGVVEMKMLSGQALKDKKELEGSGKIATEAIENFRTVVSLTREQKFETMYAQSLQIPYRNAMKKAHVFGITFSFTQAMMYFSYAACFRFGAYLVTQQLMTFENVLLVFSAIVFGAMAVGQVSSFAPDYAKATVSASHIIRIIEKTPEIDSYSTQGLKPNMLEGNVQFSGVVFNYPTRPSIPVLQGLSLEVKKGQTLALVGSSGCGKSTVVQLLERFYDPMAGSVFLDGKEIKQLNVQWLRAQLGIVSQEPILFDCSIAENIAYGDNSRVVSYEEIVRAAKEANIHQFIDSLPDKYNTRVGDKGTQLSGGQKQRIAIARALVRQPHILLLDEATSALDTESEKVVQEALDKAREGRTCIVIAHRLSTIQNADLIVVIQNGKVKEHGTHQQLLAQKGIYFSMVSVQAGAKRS
Description: LLC-PK1 cells transduced with human MDR1 (LLC-ABCB1) or murine Mdr1a (LLC-Abcb1a) were kindly provided by Prof. P. Borst and Dr. A. Schinkel (The Netherlands Cancer Institute, Amsterdam, The Netherlands).
as §1, §2

[3] = biological target: T2, ABCB1 (Homo sapiens, UniProt P08183)
T2 sequence (P08183 whole entry): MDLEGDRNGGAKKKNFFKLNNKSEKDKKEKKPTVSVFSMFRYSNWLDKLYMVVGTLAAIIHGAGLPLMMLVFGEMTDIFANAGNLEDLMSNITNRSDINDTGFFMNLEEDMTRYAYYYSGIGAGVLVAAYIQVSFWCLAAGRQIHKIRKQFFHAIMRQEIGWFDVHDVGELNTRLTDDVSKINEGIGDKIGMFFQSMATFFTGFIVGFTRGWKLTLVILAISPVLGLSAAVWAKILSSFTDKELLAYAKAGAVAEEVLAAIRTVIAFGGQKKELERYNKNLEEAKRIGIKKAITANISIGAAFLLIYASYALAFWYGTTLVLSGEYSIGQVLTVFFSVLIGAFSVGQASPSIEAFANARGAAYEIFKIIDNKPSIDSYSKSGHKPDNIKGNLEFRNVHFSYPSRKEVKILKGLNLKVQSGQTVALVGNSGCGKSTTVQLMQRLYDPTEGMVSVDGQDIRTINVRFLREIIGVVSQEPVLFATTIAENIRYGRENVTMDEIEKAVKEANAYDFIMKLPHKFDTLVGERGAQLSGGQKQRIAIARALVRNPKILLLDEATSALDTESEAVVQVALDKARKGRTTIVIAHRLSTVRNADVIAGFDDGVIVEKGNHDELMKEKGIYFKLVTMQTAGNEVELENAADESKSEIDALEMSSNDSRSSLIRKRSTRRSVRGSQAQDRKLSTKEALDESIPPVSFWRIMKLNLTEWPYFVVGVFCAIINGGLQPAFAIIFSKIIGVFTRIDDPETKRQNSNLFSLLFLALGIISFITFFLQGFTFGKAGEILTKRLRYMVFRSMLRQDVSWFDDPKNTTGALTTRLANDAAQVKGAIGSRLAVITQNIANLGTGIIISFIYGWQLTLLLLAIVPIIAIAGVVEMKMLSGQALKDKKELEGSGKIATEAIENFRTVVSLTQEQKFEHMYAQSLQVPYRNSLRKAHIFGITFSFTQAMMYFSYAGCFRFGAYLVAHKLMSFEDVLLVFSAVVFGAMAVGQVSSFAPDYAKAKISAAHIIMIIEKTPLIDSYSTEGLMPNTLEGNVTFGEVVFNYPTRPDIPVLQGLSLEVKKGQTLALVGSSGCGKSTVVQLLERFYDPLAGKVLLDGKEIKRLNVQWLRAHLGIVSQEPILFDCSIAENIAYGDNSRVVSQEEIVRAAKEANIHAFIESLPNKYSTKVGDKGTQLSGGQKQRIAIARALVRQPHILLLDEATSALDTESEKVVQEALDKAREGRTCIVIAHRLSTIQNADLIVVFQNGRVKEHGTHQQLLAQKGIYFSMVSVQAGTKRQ

[4] = tested on: C57BL/6N mouse plasma; experiment: Plasma protein binding (ultrafiltration) in mouse plasma; assay type: in vitro ADME
Description: (§3) After incubation, plasma aliquots (200 μL) were transferred to the preconditioned Amicon filters, which were centrifuged (12000g, 30 min, 25 °C). Filters and tubes were separately measured in a gamma counter, and the obtained data were decay corrected. Percent plasma protein binding was calculated as percent radioactivity in the filter relative to total radioactivity (filter and tube).

[5] = short anesthesia (5 min), tariquidar 15 mg/kg, 25 min after injection
Description: (§8) In one cohort, all procedures were performed in isoflurane anesthetized (1.5–2% in oxygen) animals resulting in a total anesthesia length of 160 min (= long anesthesia). In the second cohort, pretreatment and radiotracer injection were performed in awake animals which were only shortly anesthetized prior to retro-orbital blood sampling, resulting in a total anesthesia length of 5 min (= short anesthesia). […] Blood was centrifuged to obtain plasma, and whole brains were removed. To plasma and homogenized brain tissue were added unlabeled verapamil (10 mg/mL in water, 100 μL) or N-desmethyl-loperamide (10 mg/mL in water/acetonitrile; 1/1, v/v, 100 μL), and proteins were precipitated by the addition of acetonitrile (1 μL per μL of plasma and 0.5 mL per brain). The homogenates were vortexed and then centrifuged (12000g, 5 min, 21 °C). Each supernatant (plasma, brain, 3 μL each) and diluted radiotracer solution as reference were spotted on thin-layer chromatography (TLC) plates (silica gel 60F 254 nm, 20 × 20 cm; Merck, Darmstadt, Germany), and plates were developed in ethyl acetate/triethylamine (9/1, v/v). Detection was performed by placing the TLC plates on multisensitive phosphor screens (PerkinElmer Life Sciences, Waltham, MA). The screens were scanned at 300 dpi resolution using a PerkinElmer Cyclone Plus Phosphor Imager (PerkinElmer Life Sciences).

[6] = biological target: T1, Abcb1a; settings: for Kp,brain,VPM or Kp,brain,dLOP fold increase, tariquidar vs vehicle: metabolite corrected; for Kp,brain for unchanged parent tracer (Kp,brain,VPM or Kp,brain,dLOP): 25 min, corrected for radiolabeled metabolites
Description: as §8

[7] = tested on: Abcb1a; experiment: PET imaging of radiotracer brain distribution (Kb,brain) in C57BL/6N wild-type, Abcb1a/1b(−/−) and Abcb1a/1b(+/−) mice and tariquidar concentration–response
Description: (§4) Animal respiratory rate and body temperature were constantly monitored (SA Instruments Inc., Stony Brook, NY, USA), and the isoflurane level was adjusted (1.5–2% in oxygen) to achieve a constant and sufficient depth of anesthesia. Anesthesia was maintained for the whole pretreatment and imaging period. Following administration, anatomical magnetic resonance imaging (MRI) was performed on a 1 T benchtop MRI (ICON, Bruker BioSpin GmbH, Ettlingen, Germany) using a modified 3D T1-weighted gradient echo sequence (T1-FLASH) and the following imaging parameters: echo time (TE) = 4.7 ms; repetition time (TR) = 27 ms; flip angle (FA) = 25°; field of view (FOV) = 7.6 × 2.6 × 2.4 cm; matrix = 380 × 130; 32 slices; slice thickness = 750 μm; total imaging time = 22 min. Following MRI, the animal bed was transferred into the gantry of a microPET scanner (Focus 220, Siemens Medical Solutions, Knoxville, TN, USA), and a 10 min transmission scan using a ^57Co point source was recorded.
(§5) After completion of the imaging procedure, a terminal blood sample was withdrawn under isoflurane anesthesia from the retro-orbital sinus vein, and the animals were sacrificed by cervical dislocation. Blood was centrifuged (17000g, 4 °C, 4 min) to obtain plasma, and whole brains were removed. […] The measured radioactivity data were corrected for radioactive decay and expressed as standardized uptake value ((radioactivity per g/injected radioactivity) × body weight). The remainder of the plasma samples was stored at −80 °C until measurement of tariquidar plasma concentrations using a previously described combined liquid chromatography tandem mass spectrometry (LC/MS) assay.[17]
(§6) Images were reconstructed using Fourier rebinning of the 3D sonograms followed by two-dimensional filtered back projection with a ramp filter, resulting in an image voxel size of 0.4 × 0.4 × 0.796 mm^3. A standard data correction protocol (normalization, attenuation, and decay correction) was applied to the PET data. The PET units were converted into units of radioactivity concentration by applying a calibration factor derived from imaging of a cylindrical phantom with a known ^11C-radioactivity concentration. Using the image analysis software Amide,[31] whole brain was manually outlined on the PET images, and time–activity curves, expressed in standardized uptake value, were derived.
(§7) Concentration–response relationships were analyzed by nonlinear regression analysis based on a sigmoidal model with variable slope using Prism 6 software.

[8] = biological target: T1, Abcb1a; experiment: as above
Description: as §4, §5, §6, §7

[9] = biological target: T2, ABCB1; settings: cited from earlier work
[10] = biological target: Abcb1a/1b (Mus musculus, UniProt P21447); settings: for Kp,brain: wild-type FVB/N mice, 25 min after injection
Abcb1a/1b, sequence (P21447 whole entry): as the sequence (P21447 whole entry) above
Description: Blood and brain were transferred to preweighed tubes and measured for radioactivity in a gamma counter. The measured radioactivity data were corrected for radioactive decay, and Kb,brain values were calculated.

[11] = tested on: human plasma; experiment: Plasma protein binding (ultrafiltration) in human plasma; assay type: in vitro ADME; settings: without tariquidar
Description: as §3

[12] = tested on: human plasma; design: method as in PMID 23340958; settings: human plasma ref 38; cited from earlier work
[13] = Tariquidar plasma concentration at the end of the PET scan (LC/MS); assay type: in vivo, mouse; settings: 30 mg/kg iv
[14] = biological target: T2, ABCB1; experiment: cell-based; settings: ABCB1-transfected LLC cells, normalized TR over 6 h, estimated by sigmoidal fit
[15] = tested on: ABCB1; design: method as in PMID 20016890; settings: rats ref 35; read-out: in vivo IC50 of tariquidar for enhancement of brain distribution of (R)-[11C]verapamil; cited from earlier work

## [3H]C([3H])([3H])NC(=O)C(CCN1CCC(O)(c2ccc(Cl)cc2)CC1)(c1ccccc1)c1ccccc1 [[^3H]-N-desmethyl-loperamide]
[1]
  transport ratio (TR): 1.6 ± 0.03
[2]; Abcb1a-transfected LLC cells, 5 nM substrate, without tariquidar
  transport ratio (TR), Papp(b–A)/Papp(a–B): 27.6 ± 6.5
[2]; Abcb1a-transfected cells
  TR relative to TR of [3H]verapamil: 8.6 times
[3]; ABCB1-transfected LLC cells, 5 nM substrate, without tariquidar
  transport ratio (TR), Papp(b–A)/Papp(a–B): 18.5 ± 1.7
[3]; ABCB1-transfected cells
  TR relative to TR of [3H]verapamil: 5 times
[3]; in ABCB1- and Abcb1a-transfected cells (both cell types)
  transport ratio relative to [3H]verapamil: 5 to 9 times

## CNC(=O)C(CCN1CCC(O)(c2ccc(Cl)cc2)CC1)(c1ccccc1)c1ccccc1 [[^11C]-N-desmethyl-loperamide]
[4]; with tariquidar (2400 nM)
  percentage of non-protein bound radiotracer: 12.0 ± 1.0%
[4]; without tariquidar
  percentage of non-protein bound radiotracer: 14.5 ± 1.8%
[5]
  percentage of unchanged radiotracer in brain: 70 ± 11%
  percentage of unchanged radiotracer in plasma: 18 ± 1%
[5]; listed as [^11C]-N-Desmethyl-loperamide
  percentage of unchanged radiotracer in plasma: 18 ± 1 ^d %
[6]; long anesthesia (160 min)
  Kb,brain fold increase, tariquidar vs vehicle: 4.0 fold
  Kp,brain fold increase, tariquidar vs vehicle: 3.7 fold
  Kp,brain,VPM or Kp,brain,dLOP fold increase, tariquidar vs vehicle: 18.3 fold
[6]; long anesthesia (160 min), tariquidar 15 mg/kg
  Kp,brain for unchanged parent tracer (Kp,brain,VPM or Kp,brain,dLOP): 7.34 ± 0.58
[6]; long anesthesia (160 min), vehicle
  Kp,brain for unchanged parent tracer (Kp,brain,VPM or Kp,brain,dLOP): 0.40 ± 0.16
[6]; short anesthesia (5 min)
  Kb,brain fold increase, tariquidar vs vehicle: 7.0 fold
  Kp,brain fold increase, tariquidar vs vehicle: 6.6 fold
  Kp,brain,VPM or Kp,brain,dLOP fold increase, tariquidar vs vehicle: 9.6 fold
[6]; short anesthesia (5 min), tariquidar 15 mg/kg
  Kp,brain for unchanged parent tracer (Kp,brain,VPM or Kp,brain,dLOP): 4.85 ± 0.29 ^b
[6]; short anesthesia (5 min), vehicle
  Kp,brain for unchanged parent tracer (Kp,brain,VPM or Kp,brain,dLOP): 0.51 ± 0.18
[7]; C57BL/6N wild-type mice, end of PET scan
  blood radioactivity concentrations after tariquidar pretreatment compared to vehicle: increased
[7]; homozygous Abcb1a/1b(−/−) mice
  increase in Kb,brain over vehicle treated wild-type mice: 2.8 fold
[7]; vehicle treated homozygous Abcb1a/1b(−/−) mice
  brain-to-blood concentration ratio (Kb,brain): 3.93 ± 0.36
[8]; heterozygous Abcb1a/1b(+/−) mice
  brain-to-blood concentration ratio (Kb,brain): 1.54 ± 0.19
[8]; heterozygous Abcb1a/1b(+/−) mice, not significant
  increase in Kb,brain over vehicle treated wild-type mice: 1.1 fold
[8]; vehicle treated C57BL/6N wild-type mice, end of PET scan (50–60 min), total radioactivity
  brain-to-blood concentration ratio (Kb,brain): 1.42 ± 0.16
[8]; wild-type mice after 30 mg/kg tariquidar iv 2 h before PET
  brain-to-blood concentration ratio (Kb,brain): 2.58 ± 0.44
[9]; humans, compared with PET scans without tariquidar ref 18-21
  increase in distribution to the human brain following administration of tariquidar: 2 to 5 times
[10]; awake
  Kb,brain fold increase, Abcb1a/1b(−/−) vs wild-type: 13.8 fold
  Kp,brain fold increase, Abcb1a/1b(−/−) vs wild-type: 13.7 fold
  Kp,brain: 0.20 ± 0.05
[10]; isoflurane
  Kb,brain fold increase, Abcb1a/1b(−/−) vs wild-type: 5.7 fold
  Kp,brain fold increase, Abcb1a/1b(−/−) vs wild-type: 6.0 fold
  Kp,brain: 0.20 ± 0.04
[11]
  percentage of non-protein bound radiotracer: 13.9 ± 0.7%

## COc1cc2c(cc1OC)CN(CCc1ccc(NC(=O)c3cc(OC)c(OC)cc3NC(=O)c3cnc4ccccc4c3)cc1)CC2 [tariquidar]
[12]
  unbound fraction in human plasma: 0.0063
[13]
  tariquidar plasma concentration (mean ± SD): 3.508 ± 0.427 µM
  tariquidar plasma concentration (range): 2802 to 3863 nM
[8]
  IC50: 1.33 µM
[8]; C57BL/6N wild-type mice
  Hill slope, Kb,brain of (R)-[11C]verapamil vs tariquidar plasma concentration: 2.98
  Hill slope, Kb,brain of [11C]-N-desmethyl-loperamide vs tariquidar plasma concentration: 1.44
[8]; in vivo IC50 of tariquidar (plasma concentration) for increase in Kb,brain of (R)-[11C]verapamil, C57BL/6N wild-type mice, normalized to Abcb1a/1b(−/−) mice
  IC50: 1.05 µM
[8]; unbound tariquidar in vivo IC50, (R)-[11C]verapamil, mice, in vivo IC50 corrected for plasma protein binding of tariquidar
  IC50: 0.0066 µM
[8]; unbound tariquidar in vivo IC50, [11C]-N-desmethyl-loperamide, mice, in vivo IC50 corrected for plasma protein binding of tariquidar
  IC50: 0.0084 µM
[2]; Abcb1a-transfected cells
  Hill slope, inhibition of [3H]-N-desmethyl-loperamide transport: 1.3
  Hill slope, inhibition of [3H]verapamil transport: 2.6
[2]; IC50 of tariquidar for inhibition of [3H]-N-desmethyl-loperamide transport, Abcb1a-transfected LLC cells
  IC50: 0.006 µM
[2]; IC50 of tariquidar for inhibition of [3H]verapamil transport, Abcb1a-transfected LLC cells
  IC50: 0.0179 µM
[14]; IC50 of tariquidar for inhibition of [3H]-N-desmethyl-loperamide transport
  IC50: 0.009 µM
[14]; IC50 of tariquidar for inhibition of [3H]verapamil transport
  IC50: 0.0172 µM
[3]; ABCB1-transfected cells
  Hill slope, inhibition of [3H]-N-desmethyl-loperamide transport: 2.1
  Hill slope, inhibition of [3H]verapamil transport: 10.8
[15]
  IC50: 0.65 µM
[9]; read-out: in vivo IC50 of tariquidar for enhancement of brain distribution of (R)-[11C]verapamil, humans ref 19
  IC50: 2.25 µM
